Assays:
Assay type in all cases: physicochemical
[1] = Dynamic moisture sorption (DMS) assessment; settings: for sorption/desorption profile: about 2% to about 90% RH, room temperature
Description: Dynamic moisture sorption (DMS) assessment was performed at 25° C. using a VTI atmospheric microbalance, SGA-100 system (VTI Corp., Hialeah, Fla. 33016). A sample size of approximately 5-10 mg was used and the humidity was set at the ambient value at the start of the analysis. A typical DMS analysis consisted of three scans: ambient to 2% relative humidity (RH), 2% RH to 90% RH, 90% RH to 5% RH at a scan rate of 5% RH/step. The mass was measured every two minutes and the RH was changed to the next value (±5% RH) when the mass of the sample was stable to within 0.02% for 5 consecutive points. Representative DMS traces for samples of a crystalline hydrochloride salt and of a crystalline hydrate of a hydrochloride salt of compound I are shown in FIGS. 3 and 6, respectively.

[2] = Solid state stability assessment; settings: for change in DSC, TGA, PXRD results after storage: hydrochloride
Excerpt: At specific intervals, the contents of a representative vial was removed and analyzed by DSC, TGA, PXRD, and by HPLC for chemical purity.

[3] = Thermal analysis (DSC and TGA)
Description: Differential scanning calorimetry (DSC) was performed using a TA Instruments Model Q-100 module. Data were collected and analyzed using TA Instruments Thermal Advantage for Q Series™ software. A sample of about 1-10 mg was accurately weighed into an aluminum pan with lid. The sample was evaluated using a linear heating ramp of 10° C./min from 5° C. to, typically, 265° C. The DSC cell was purged with dry nitrogen during use. Representative DSC traces for samples of the crystalline hydrochloride salt and of the crystalline hydrate of a hydrochloride salt of compound I are shown in FIGS. 2 and 5, respectively.
Thermogravimetric analysis (TGA) was performed using a TA Instruments Model Q-500 module. Data were collected and analyzed using TA Instruments Thermal Advantage for Q Series™ software. A sample weighing about 1-5 mg was placed in an aluminum pan on a platinum cradle and scanned from ambient temperature to 300° C. with a linear heating rate of 10° C./min. The balance and furnace chambers were purged with nitrogen during use. Representative TGA traces for samples of a crystalline hydrochloride salt and of a crystalline hydrate of a hydrochloride salt of compound I are also shown in FIGS. 2 and 5, respectively.

[4] = 24 weeks at 40° C. and 75% relative humidity
[5] = comparison of DSC and TGA traces

Row | SMILES | weight change (hygroscopicity) ([1]; 2% to 90% relative humidity, room temperature (25° C.)) | sorption/desorption profile [1] | deliquescence ([1]; exposed to up to 90% relative humidity at room temperature) | chemical degradation by HPLC after storage [2, 4] | change in DSC, TGA, PXRD results after storage [2, 4] | change in DSC, TGA, PXRD results after storage ([2]; 24 weeks at 40° C. and 75% relative humidity, listed as hydrochloride salt) | chemical purity of the stored sample (HPLC) ([2]; after 24 weeks of storage, open glass vials, 40° C. and 75% RH) | temperature up to which thermally stable [3] | temperature below which no significant thermal event ([3]; TGA / DSC trace, 10° C./min) | decomposition (degradation) temperature [3, 5] | weight gain ([1]; 40% RH to 75% RH) | weight loss on drying ([1]; dried from ambient to 2% RH, regained from 2% RH to 40% RH) | decomposition at the melt transition ([3]; comparison of DSC and TGA traces, melt about 225° C. to about 250° C.)
1 | CC(C)n1c(=O)c(C(=O)N[C@H]2C[C@H]3CC[C@@H](C2)N3C[C@@H](O)CN(C)S(C)(=O)=O)cc2ccccc21.Cl [crystalline hydrochloride salt, 1-isopropyl-2-oxo-1,2-dihydroquinoline-3-carboxylic acid {(1S,3R,5R)-8-[(R)-2-hydroxy-3-(methanesulfonyl-methyl-amino)propyl]-8-azabicyclo[3.2.1]oct-3-yl}amide hydrochloride] | less than 0.2% | reversible | neither the crystalline hydrochloride salt of the invention nor the hydrate thereof is deliquescent | no chemical degradation | no detectable changes | no detectable change | 99.6% | greater than 200 °C | about 225 °C | above 230 °C |  |  | 
2 | CC(C)n1c(=O)c(C(=O)N[C@H]2C[C@H]3CC[C@@H](C2)N3C[C@@H](O)CN(C)S(C)(=O)=O)cc2ccccc21.Cl.O [crystalline hydrate, crystalline hydrate of hydrochloride salt of 1-isopropyl-2-oxo-1,2-dihydroquinoline-3-carboxylic acid {(1S,3R,5R)-8-[(R)-2-hydroxy-3-(methanesulfonyl-methyl-amino)propyl]-8-aza-bicyclo[3.2.1]oct-3-yl}amide] |  | reversible |  |  |  |  |  |  |  | above 250 °C | less than 0.25% | ~2.3% | not significant
